# According to patent publication US12064503B2, “High-potency vitamin C and sugar alcohol topical formulations” (ICB (an ABC), LLC, priority 2020, dated 2024):
# Columns and labels:
# skin [1] = conditions: topical use of 4% HQ or 5% Vitamin C; cited from earlier work
# [2] = Solubility in non-aqueous skin-compatible solvents; conditions: neat solvent
# skin [3] = conditions: cream containing 10% MAP; cited from earlier work
# skin [4] = conditions: topical; cited from earlier work
# skin [5] = conditions: concentrations of 0.2%; clinical data from SEPPIC; cited from earlier work
molecule,measurement,setting,value
"O=C1O[C@H]([C@@H](O)CO)C(O)=C1O [AA, L-ascorbic acid]",improvement,skin [1],62.5%
CO[C@H]1CO[C@H]2[C@@H]1OC[C@H]2OC [Dimethyl isosorbide],ability of the solvent to solubilize ascorbic acid,[2],very limited
"Oc1ccc(O)cc1 [HQ, hydroquinone]",improvement,skin [1],93%
same,side-effects,skin [1],68.7%
"O=C1O[C@H]([C@@H](O)CO)C([O-])=C1OP(=O)([O-])[O-].O=C1O[C@H]([C@@H](O)CO)C([O-])=C1OP(=O)([O-])[O-].[Mg+2].[Mg+2].[Mg+2] [MAP, magnesium ascorbyl phosphate]",brighten/lighten the appearance of the skin,skin [3],effectively brighten/lighten
CC(C)(CO)[C@@H](O)C(=O)NCCCO [Panthenol],concentration at which inhibition of transepidermal water loss is apparent,skin [4],≥ 1%
madecassoside,ability to reduce erythema (skin redness),skin [5],desirable ability to reduce erythema
